Values joined by “and” are separate entries in the source; they are usually repeats but may differ in a detail not shown here. Equal entries are not always repeated. Values belong to the molecule of their own block, whether it stands above or below them.
Experiments:
mouse model of ARDS = conditions: treatment; cited from earlier work
[1] = cited from earlier work
[2] = target: erythrocyte KCa3.1 channels (Homo sapiens (Human), UniProt O15554); experiment: Erythrocyte KCa3.1 assay; format: cell-based; conditions: human erythrocytes, A23187-activated KCa3.1; read-out: RBC K (in vitro) Human IC50 (μM) Potency category
Method in brief: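 Washed human erythrocytes (cytocrit 1.5%) in unbuffered salt solution at 37° C with 20 μM CCCP and test compound; channels activated by 0.33 μM A23187. Peak hyperpolarization tracked via extracellular pH gives fractional remaining K+ conductance; IC50 (μM) from Hill fit.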

physchem = conditions: 25 °C, pH 7.4, aqueous buffer, kinetic from dmso stock
Description: 2.79 g of K2HPO4 and 0.54 g of KH2PO4 was dissolved in 390 mL of milliQ water. pH was adjusted to 7.4 using 1N HCl/1N NaOH and final volume was made up to 400 mL with milliQ water.
In case of compounds not soluble/less quantity submission, 40/20/10Mm stocks were prepared and used for experiment.
Assay Procedure: • 245 μL of 50 mM phosphate buffer then 5 μL each of test compound/standards (80 mM) in their respective positions was added to the 1.1 mL 96 well plate. • DMSO Controls was prepared by taking 245 μL of 100% DMSO then 5 μL each of test compound in their respective positions and added to the 1.1 mL 96 well plate • Plate was incubated with mixing at 1600 RPM for 16 hours at room temperature (˜23 MC). • After incubation, samples were filtered using Millipore plates. • Filtrates were analysed by HPLC-UV.
Solubility is calculated using the following formula: […]

Structure (SMILES): Clc1ccccc1C(c1ccccc1)(c1ccccc1)n1cccn1 [TRAM-34]
- Gas exchange (mouse model of ARDS): improvement was also demonstrated
- Water solubility [1]: extremely low

Structure (SMILES): COC(=O)N(CC(C)(C)NC(C)=O)C1(c2ccc(F)c(C(F)(F)F)c2)CC1 [Methyl (2-acetamido-2-methylpropyl)(1-(4-fluoro-3-(trifluoromethyl)phenyl)cyclopropyl)carbamate]
- IC50 [2]: < 1 µM
- solubility at 16 h (physchem): 596 µg/mL and 1500 µM

Structure (SMILES): COC(=O)N(CC(C)(C)N)C1(c2ccc(F)c(OC(F)(F)F)c2)CC1 [Methyl (2-amino-2-methylpropyl)(1-(4-fluoro-3-(trifluoromethoxy)phenyl)cyclopropyl)carbamate]
- IC50 [2]: < 0.3 µM
- solubility at 16 h (physchem): 584 µg/mL and 1500 µM

Structure (SMILES): CC(C)(N)CN(C(=O)C1CC1)C1(c2ccc(F)c(C(F)(F)F)c2)CC1 [N-(2-amino-2-methylpropyl)-N-(1-(4-fluoro-3-(trifluoromethyl)phenyl)cyclopropyl)cyclopropanecarboxamide]
- IC50 [2]: < 1 µM
- solubility at 16 h (physchem): 582 µg/mL and 1200 µM

Structure (SMILES): COC(=O)N(CC(C)(C)N)C1(c2cccc(Cl)c2)CC1 [Methyl (2-amino-2-methylpropyl)(1-(3-chlorophenyl)cyclopropyl)carbamate]
- IC50 [2]: < 1 µM
- solubility at 16 h (physchem): 634 µg/mL and 1500 µM

Structure (SMILES): CN1CCC1CN(CC(C)(C)O)C1(c2ccc(F)c(C(F)(F)F)c2)CC1 (stereo not shown) [1-((1-(4-fluoro-3-(trifluoromethyl)phenyl)cyclopropyl)((1-methylazetidin-2-yl)methyl)amino)-2-methylpropan-2-ol]
- IC50 [2]: < 1 µM
- solubility at 16 h (physchem): 597 µg/mL and 1600 µM

Structure (SMILES): NC(=O)C(c1ccccc1)(c1ccc(F)cc1)c1ccc(F)cc1 [senicapoc]
- Gas exchange (mouse model of ARDS): improvement was also demonstrated
- Water solubility [1]: extremely low

Structure (SMILES): CC(C)(N)CN(C1(c2ccc(F)c(C(F)(F)F)c2)CC1)S(C)(=O)=O [N-(2-amino-2-methylpropyl)-N-(1-(4-fluoro-3-(trifluoromethyl)phenyl)cyclopropyl)methanesulfonamide]
- IC50 [2]: < 0.3 µM
- solubility at 16 h (physchem): 565 µg/mL and 1500 µM

More lines, now with the values ahead:

- IC50 [2]: < 0.3 µM
- solubility at 16 h (physchem): 667 µg/mL and 1700 µM
Structure (SMILES): COC(=O)N(C[C@H]1CCCN1)C1(c2ccc(F)c(C(F)(F)F)c2)CC1 [Methyl (R)-(1-(4-fluoro-3-(trifluoromethyl)phenyl)cyclopropyl)(pyrrolidin-2-ylmethyl)carbamate]

- IC50 [2]: < 0.3 µM
- solubility at 16 h (physchem): 616 µg/mL and 1500 µM
Structure (SMILES): CCOC(=O)N(C[C@H]1CCCN1)C1(c2ccc(F)c(C(F)(F)F)c2)CC1 [Ethyl (R)-(1-(4-fluoro-3-(trifluoromethyl)phenyl)cyclopropyl)(pyrrolidin-2-ylmethyl)carbamate]

- IC50 [2]: < 0.3 µM
- solubility at 16 h (physchem): 601 µg/mL and 1600 µM
Structure (SMILES): O=C(OC1CC1)N(C[C@@H]1CCCN1)C1(c2ccc(F)c(C(F)(F)F)c2)CC1 [Cyclopropyl (S)-(1-(4-fluoro-3-(trifluoromethyl)phenyl)cyclopropyl)(pyrrolidin-2-ylmethyl)carbamate]

— US20240034717A1, “NOVEL POTASSIUM CHANNEL INHIBITORS” (Saniona A/S, priority 2020, published 2024)
